Reference: patent publication US6083920A, “Compositions for modulating intracellular inositol trisphosphate concentration” (priority 1996, dated 2000)

Legend:
[1] = tested on: InsP3 signalling in primary chick cortical neurons; experiment: Phosphoinositide hydrolysis assay (InsP3 signalling) in cultured primary cortical neurons; format: cell-based; details: for physiological effect in this system: amino group amidated, non-ionic; for Ins-P-n, modulator Lsm:Sph: 20 μM Lysosphingomyelin + 20 μM Sphingosine; for Ins-P-n, modulator Psy:Sph: 20 μM Psychosine + 20 μM Sphingosine; for fold induction at 100 µM: Gallus gallus, Cortical neurone, 20 min, read-out: Ins-P-n (agonist alone)
Protocol: Primary cultures of neurons were prepared from the telencephalon of white Leghorn chick embryos on the eighth day of their development (Rosenberg et al., J.Biol. Chem. 267:10601-10612, 1992). The neurons were seeded in 24-well plastic tissue culture plates that had been coated with L-polylysine. The density of the neurons was 10^5 cells per well, and they were cultured in Dulbecco's modified Eagle's medium/Ham's high glucose F-12 medium (1:1, vol:vol) containing 500 ng/L sodium selenite, 500 μg/L transferrin, and 165 pmole/L EGF. The cultures were maintained at 37° C. under 5% CO2 in air for 4 days, by which time the cells had differentiated into neurite-bearing cortical granulocytic neurons. These cultures of mature embryonic neurons were used for phosphoinositide hydrolysis assays (as described in Example 2).
Receptor-stimulated and basal unstimulated hydrolysis of phosphoinositides was measured by the following procedure. In order to label the cellular phosphoinositides metabolically, the primary cultures of chick cortical neurons (described in Example 1) were incubated overnight with 0.5 ml Dulbecco's modified Eagle's medium containing 1 μCi [^3 H]myo-inositol per well. The cells were then washed twice with 1 ml Dulbecco's phosphate-buffered saline (PBS) and 0.5 ml of PBS containing 4.5 g/L glucose was added. Sphingosine, psychosine, lysosulphatide, or lysosphingomyelin, prepared as the hydrochloride salt dissolved in water, were then added to produce the desired extracellular concentration in specific wells, […] The cells were then washed twice with 1 ml PBS, and pre-incubated for 15 minutes at 37° C. with 0.5 ml PBS containing 10 mM LiCl and the compound to be tested was added. […] The tubes were vortexed thoroughly, then centrifuged at 500×g for 5 minutes to separate the aqueous and chloroform phases. For each sample, a 1.5-ml aliquot of the upper (aqueous) phase was applied to a small column containing BioRad AG1X8 resin (formate form). Free [^3 H]inositol and [^3 H]glycerophosphoinositol were washed through the column with 5 ml of a solution containing 5 mM sodium borate and 60 mM sodium formate. The total phosphorylated [^3 H] inositol fraction was eluted from the column for radiometric scintillation spectrometry analysis with 3 ml 1.0 M ammonium formate/0.1 M formic acid;
In addition, a 0.5 ml aliquot of the lower (chloroform) phase of each sample was analyzed radiometrically by scintillation spectrometry in order to determine the quantity of lipid-bound [^3 H]myo-inositol. Estimation of phosphoinositide hydrolysis by phospholipase C is based upon the quantity of [^3 H]inositol phosphates produced, and is expressed as the percentage of the latter relative to total free and componential [^3 H]inositol (dpm ammonium formate+dpm chloroform fractions).
Cultured primary chick cortical neurons that were prelabeled with [^3 H]myo-inositol were examined for enhanced InsP3 signalling in response to various agonists including glutamate, aspartate, and the metabotropic […] receptor agonists ibotenate and quisqualate.

[2] = Membrane insertion potential
[3] = tested on: calcium ion signalling in cortical neurons; experiment: Metabotropic receptor function: calcium ion signalling (fura 2) in intact cortical neurons; format: cell-based, chick; details: 10 μM agonist, 30 minutes at 37° C., fura 2 fluorescence ratio
Protocol: Metabotropic receptor function was examined in intact neurons by assaying lysosphingolipid modulation of calcium ion signalling. Approximately 1×10^6 cortical neurons were cultured on rectangular L-polylysine-coated coverslips and loaded with lysocerebroside or lysosphingomyelin to a level of 150±20 pmoles per mg protein. The neurons were returned to complete Ham's high glucose medium/DMEM (1:1, vol:vol) and infiltrated with 5 μM fura 2/AM (Molecular Probes, Eugene, Oreg.). Fura 2 is a calcium chelator whose fluorescence absorbance shifts to shorter wavelength upon calcium ion binding is measurable in intact cells. A change in intraneuronal calcium ion concentration was monitored as a change in the fluorescence spectrum.
The neurons were exposed to 10 μM glutamate agonist (for example, ibotenate) for 30 minutes at 37° C. The coverslips were then transferred to quartz cuvettes in medium containing 250 μM sulfinpyrazone to prevent fura 2/AM diffusion. Fluorescence ratios were recorded in a Perkin-Elmer LS-5 Fluorescence Spectrometer thermostatted at 37° C. at excitation wavelengths of 340 and 380 nm, a nd emission measurement at 500 nm. Calcium ion signalling in agonist-stimulated neurons was 3.0±0.2 arbitrary units for ibotenate-exposed neurons.

[4] = tested on: rat C6 glioma cells; details: cited from earlier work
[5] = then 100 μM agonist 20 min, normalized to control = 1.00

Compound | Ins-P-n, modulator Lsm:Sph [1, 5] | Ins-P-n, modulator Psy:Sph [1, 5] | fold induction at 100 µM [1] | other results
CCCCCCCCCCCCC/C=C/[C@@H](O)[C@H](CO)NC(C)=O [N-acetyl sphingosine] | – | – | – | physiological effect in this system [1]: little or no physiological effect
CCCCCCCCCCCCCCC[C@@H](O)[C@@H](N)CO [sphinganine] | – | – | – | membrane insertion potential relative to sphingosine [2]: less than one third the membrane insertion potential of sphingosine
NC(C(=O)O)c1cc(O)no1 (stereo not drawn) [Ibotenate, ibotenate] | 2.10 ± 0.10 | 3.10 ± 0.35 | 3 ± 0.1 | calcium ion signalling in agonist-stimulated neurons [3]: 3.0±0.2 arbitrary units
ceramide | – | – | – | physiological effect in this system [1]: little or no physiological effect
CN[C@@H]1C[C@H]2O[C@@](C)([C@@H]1OC)n1c3ccccc3c3c4c(c5c6ccccc6n2c5c31)C(=O)NC4 [staurosporine] | – | – | – | influence on the effects of sphingosine, lysocerebroside, or lysosphingomyelin on InsP3 production ([1]; brain neurons responsive to excitatory amino acids): does not influence
N[C@@H](CCC(=O)O)C(=O)O [Glutamate, glutamate] | 3.00 ± 0.10 | 3.00 ± 0.35 | 3.3 ± 0.05 | –
CCCCCCCCCCCCC/C=C/[C@@H](O)[C@@H](N)CO[C@@H]1O[C@H](CO)[C@H](O)[C@H](OS(=O)(=O)O)[C@H]1O [Lysosulphatide] | – | – | – | inhibitory effect on InsP3 enhancement caused by sphingosine or metabotropic glutamate receptor agonists ([1]; cortical neurons): without inhibitory effect
N[C@@H](CC(=O)O)C(=O)O [Aspartate, aspartate] | 2.00 ± 0.05 | 2.65 ± 0.50 | 2.7 ± 0.06 | Ins-P-n, modulator Lsm ([1]; neurons preincubated with 20 μM Lysosphingomyelin 30 min, washed, then 100 μM agonist 20 min, normalized to control = 1.00): 1.00 ± 0.06; Ins-P-n, modulator Psy ([1]; neurons preincubated with 20 μM Psychosine 30 min, washed, then 100 μM agonist 20 min, normalized to control = 1.00): 1.00 ± 0.06
CN(C)CCCN1c2ccccc2Sc2ccc(Cl)cc21 [chlorpromazine, 10-(3-dimethylaminopropyl)-2-chlorphenothiazine] | – | – | – | level of InsP3 [4]: raises the level of InsP3
